{
  "source": "paper PMC9403976",
  "about": "“Elucidating the path to Plasmodium prolyl-tRNA synthetase inhibitors that overcome halofuginone resistance” (Nature Communications, 2022)",
  "key": {"[1]": {"target": "T1, HT-HsProRS (Homo sapiens, UniProt P07814)", "T1 sequence (P07814 996-1512)": "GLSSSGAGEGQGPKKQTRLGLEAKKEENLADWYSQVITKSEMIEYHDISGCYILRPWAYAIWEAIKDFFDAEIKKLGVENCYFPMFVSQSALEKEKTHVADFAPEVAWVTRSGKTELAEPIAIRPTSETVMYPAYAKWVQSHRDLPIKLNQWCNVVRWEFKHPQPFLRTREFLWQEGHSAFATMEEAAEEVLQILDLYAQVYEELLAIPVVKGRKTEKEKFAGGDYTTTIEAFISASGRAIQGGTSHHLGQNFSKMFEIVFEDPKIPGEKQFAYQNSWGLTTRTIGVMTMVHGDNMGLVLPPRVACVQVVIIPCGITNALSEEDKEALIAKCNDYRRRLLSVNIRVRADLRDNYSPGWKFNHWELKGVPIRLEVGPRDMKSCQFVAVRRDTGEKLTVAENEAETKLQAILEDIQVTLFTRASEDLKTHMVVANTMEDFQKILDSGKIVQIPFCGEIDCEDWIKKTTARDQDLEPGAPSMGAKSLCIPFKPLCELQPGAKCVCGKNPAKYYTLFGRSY", "assay": "biochemical", "protocol": "(§1) A Multidrop Combi Reagent Dispenser (Thermo Fisher Scientific) was used to dispense 20 μL of 2× protein solution into each well. […] Plates were mixed on an Ika MTS 2/4 Digital Microtiter Shaker at 750 rpm for 2 min, centrifuged at 1000 × g at 25 °C for 1 min, and allowed to equilibrate for 2 h at room temperature before TR-FRET measurements were taken.\n(§2) PRISM (V. 8.4.3–9.1.0, GraphPad) was used to perform non-linear regression analysis (log(inhibitor) vs. response–Variable slope (four parameters)), plot dose-response curves, and calculate IC50 values. The Cheng–Prusoff equation was used to convert IC50 to KD values (Eq. (4)):4 KD=IC50/1+[MAT379]/KD,MAT379"}, "[2]": {"target": "T1, HT-HsProRS", "conditions": "replicates 1-4", "protocol": "as §1, §2"}, "[3]": {"target": "HsProRS (Homo sapiens, UniProt P07814)", "conditions": "ref Heacock et al.; cited from earlier work"}, "[4]": {"target": "T2, HT-PfcProRS (Plasmodium falciparum, UniProt Q8I5R7)", "T2 sequence (Q8I5R7 249-746)": "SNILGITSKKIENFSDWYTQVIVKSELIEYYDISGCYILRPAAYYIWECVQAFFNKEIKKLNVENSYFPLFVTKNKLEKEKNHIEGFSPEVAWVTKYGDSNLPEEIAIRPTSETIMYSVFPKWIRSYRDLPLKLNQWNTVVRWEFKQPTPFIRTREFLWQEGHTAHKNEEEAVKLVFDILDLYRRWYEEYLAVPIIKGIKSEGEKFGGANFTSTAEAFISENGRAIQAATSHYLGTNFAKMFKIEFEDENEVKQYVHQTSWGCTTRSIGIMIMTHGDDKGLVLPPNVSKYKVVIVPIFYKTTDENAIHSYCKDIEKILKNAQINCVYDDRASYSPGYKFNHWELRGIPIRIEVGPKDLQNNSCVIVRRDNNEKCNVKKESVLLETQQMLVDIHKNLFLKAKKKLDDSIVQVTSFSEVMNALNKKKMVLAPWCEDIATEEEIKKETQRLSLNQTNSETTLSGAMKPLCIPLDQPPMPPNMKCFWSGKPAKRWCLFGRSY", "assay": "biochemical", "protocol": "as §1, §2"}, "[5]": {"target": "T2, HT-PfcProRS", "protocol": "as §1, §2"}, "[6]": {"conditions": "HsProRS (KD [nM]) mean, substrates, substrate KD, (-)"}, "[7]": {"conditions": "KD of substrate, […] HT-HsProRS, 1000 nM MAT379"}},
  "note": "“And” between values parts separate entries of the source, which are not always exact repeats. Identical values can stand only once. Like-named read-outs stand apart in the source and are kept apart here.",
  "data": [
    {"molecule": "Nc1ncnc2c1ncn2[C@@H]1O[C@H](COP(=O)(O)OP(=O)(O)OP(=O)(O)O)[C@@H](O)[C@H]1O", "note": "[ATP]", "values": [
      {"measurement": "Kd", "setting": "[1]; [6]", "result": 67100, "unit": "nM"},
      {"measurement": "Kd", "setting": "[1]; [7]", "result": 30600, "unit": "nM"},
      {"measurement": "ATP - […] HT-HsProRS - 1000nM MAT379", "setting": "[2]; Log[Substrate] (M) -1.301", "result": "1.53E-02 and -2.24E-04 and 3.02E-02 and 2.38E-02"},
      {"measurement": "ATP - […] HT-HsProRS - 1000nM MAT379", "setting": "[2]; Log[Substrate] (M) -1.602", "result": "2.53E-02 and 6.72E-02 and 4.62E-03 and 4.29E-02"},
      {"measurement": "ATP - […] HT-HsProRS - 1000nM MAT379", "setting": "[2]; Log[Substrate] (M) -1.903", "result": "3.94E-02 and 5.54E-02 and 1.78E-02 and 4.02E-02"},
      {"measurement": "ATP - […] HT-HsProRS - 1000nM MAT379", "setting": "[2]; Log[Substrate] (M) -2.204", "result": "-1.77E-02 and 2.78E-02 and -2.71E-02"},
      {"measurement": "ATP - […] HT-HsProRS - 1000nM MAT379", "setting": "[2]; Log[Substrate] (M) -2.505", "result": "4.93E-03 and 1.38E-02 and 2.29E-03 and -1.57E-02"},
      {"measurement": "ATP - […] HT-HsProRS - 1000nM MAT379", "setting": "[2]; Log[Substrate] (M) -2.806", "result": "3.39E-02 and 3.33E-02 and 1.97E-02 and 4.46E-02"},
      {"measurement": "ATP - […] HT-HsProRS - 1000nM MAT379", "setting": "[2]; Log[Substrate] (M) -3.107", "result": "5.86E-02 and 6.01E-02 and 5.77E-02 and 4.19E-02"},
      {"measurement": "ATP - […] HT-HsProRS - 1000nM MAT379", "setting": "[2]; Log[Substrate] (M) -3.408", "result": "1.19E-01 and 8.31E-02 and 6.99E-02"},
      {"measurement": "ATP - […] HT-HsProRS - 1000nM MAT379", "setting": "[2]; Log[Substrate] (M) -3.709", "result": "1.24E-01 and 1.53E-01 and 1.47E-01 and 1.40E-01"},
      {"measurement": "ATP - […] HT-HsProRS - 1000nM MAT379", "setting": "[2]; Log[Substrate] (M) -4.010", "result": "2.51E-01 and 2.58E-01 and 2.34E-01 and 2.36E-01"},
      {"measurement": "ATP - […] HT-HsProRS - 1000nM MAT379", "setting": "[2]; Log[Substrate] (M) -4.311", "result": "3.56E-01 and 3.10E-01 and 3.57E-01 and 3.37E-01"},
      {"measurement": "ATP - […] HT-HsProRS - 1000nM MAT379", "setting": "[2]; Log[Substrate] (M) -4.612", "result": "2.50E-01 and 3.45E-01 and 2.88E-01 and 2.85E-01"},
      {"measurement": "ATP - […] HT-HsProRS - 1000nM MAT379", "setting": "[2]; Log[Substrate] (M) -4.913", "result": "3.70E-01 and 3.71E-01 and 3.06E-01 and 3.78E-01"},
      {"measurement": "ATP - […] HT-HsProRS - 1000nM MAT379", "setting": "[2]; Log[Substrate] (M) -5.214", "result": "3.77E-01 and 4.09E-01 and 3.64E-01 and 3.70E-01"},
      {"measurement": "ATP - […] HT-HsProRS - 1000nM MAT379", "setting": "[2]; Log[Substrate] (M) -5.515", "result": "4.23E-01 and 4.03E-01 and 4.00E-01 and 4.38E-01"},
      {"measurement": "ATP - […] HT-HsProRS - 1000nM MAT379", "setting": "[2]; Log[Substrate] (M) -5.816", "result": "4.03E-01 and 4.66E-01 and 3.88E-01 and 4.49E-01"},
      {"measurement": "ATP - […] HT-HsProRS - 1000nM MAT379", "setting": "[2]; Log[Substrate] (M) -6.118", "result": "4.47E-01 and 4.50E-01 and 4.51E-01 and 4.46E-01"},
      {"measurement": "ATP - […] HT-HsProRS - 1000nM MAT379", "setting": "[2]; Log[Substrate] (M) -6.419", "result": "4.22E-01 and 4.52E-01 and 3.59E-01 and 4.01E-01"},
      {"measurement": "Km", "setting": "[3]", "result": 500, "unit": "µM"},
      {"measurement": "Kd", "setting": "[4]", "result": 892, "unit": "µM"}
    ]},
    {"molecule": "O=C(O)[C@@H]1CCCN1", "note": "[proline]", "values": [
      {"measurement": "Kd", "setting": "[1]; [6]", "result": 30600, "unit": "nM"},
      {"measurement": "Kd", "setting": "[1]; [7]", "result": 67100, "unit": "nM"},
      {"measurement": "Proline - […] HT-HsProRS - 1000nM MAT379", "setting": "[2]; Log[Substrate] (M) -1.000", "result": "5.08E-02 and 1.93E-02 and 4.05E-02 and 1.78E-02"},
      {"measurement": "Proline - […] HT-HsProRS - 1000nM MAT379", "setting": "[2]; Log[Substrate] (M) -1.301", "result": "6.44E-02 and 4.43E-02 and 5.23E-02 and 4.24E-02"},
      {"measurement": "Proline - […] HT-HsProRS - 1000nM MAT379", "setting": "[2]; Log[Substrate] (M) -1.602", "result": "7.04E-02 and 4.04E-02 and 8.19E-02 and 3.22E-02"},
      {"measurement": "Proline - […] HT-HsProRS - 1000nM MAT379", "setting": "[2]; Log[Substrate] (M) -1.903", "result": "1.06E-01 and 8.64E-02 and 1.07E-01 and 6.69E-02"},
      {"measurement": "Proline - […] HT-HsProRS - 1000nM MAT379", "setting": "[2]; Log[Substrate] (M) -2.204", "result": "7.48E-02 and 1.05E-01 and 9.62E-02 and 1.28E-01"},
      {"measurement": "Proline - […] HT-HsProRS - 1000nM MAT379", "setting": "[2]; Log[Substrate] (M) -2.505", "result": "7.61E-02 and 5.21E-02 and 2.93E-02 and 5.48E-02"},
      {"measurement": "Proline - […] HT-HsProRS - 1000nM MAT379", "setting": "[2]; Log[Substrate] (M) -2.806", "result": "2.57E-02 and 8.53E-02 and 3.59E-02 and 4.74E-02"},
      {"measurement": "Proline - […] HT-HsProRS - 1000nM MAT379", "setting": "[2]; Log[Substrate] (M) -3.107", "result": "9.60E-02 and 9.41E-02 and 9.82E-02 and 9.09E-02"},
      {"measurement": "Proline - […] HT-HsProRS - 1000nM MAT379", "setting": "[2]; Log[Substrate] (M) -3.408", "result": "8.87E-02 and 1.50E-01 and 1.08E-01 and 8.19E-02"},
      {"measurement": "Proline - […] HT-HsProRS - 1000nM MAT379", "setting": "[2]; Log[Substrate] (M) -3.709", "result": "1.42E-01 and 1.36E-01 and 1.15E-01 and 1.26E-01"},
      {"measurement": "Proline - […] HT-HsProRS - 1000nM MAT379", "setting": "[2]; Log[Substrate] (M) -4.010", "result": "2.43E-01 and 1.82E-01 and 1.50E-01 and 1.67E-01"},
      {"measurement": "Proline - […] HT-HsProRS - 1000nM MAT379", "setting": "[2]; Log[Substrate] (M) -4.311", "result": "2.57E-01 and 2.23E-01 and 2.59E-01 and 1.99E-01"},
      {"measurement": "Proline - […] HT-HsProRS - 1000nM MAT379", "setting": "[2]; Log[Substrate] (M) -4.612", "result": "2.84E-01 and 3.36E-01 and 2.90E-01 and 3.09E-01"},
      {"measurement": "Proline - […] HT-HsProRS - 1000nM MAT379", "setting": "[2]; Log[Substrate] (M) -4.913", "result": "3.43E-01 and 3.30E-01 and 3.37E-01 and 3.11E-01"},
      {"measurement": "Proline - […] HT-HsProRS - 1000nM MAT379", "setting": "[2]; Log[Substrate] (M) -5.214", "result": "3.51E-01 and 3.56E-01 and 3.15E-01 and 3.55E-01"},
      {"measurement": "Proline - […] HT-HsProRS - 1000nM MAT379", "setting": "[2]; Log[Substrate] (M) -5.515", "result": "4.26E-01 and 4.08E-01 and 4.22E-01 and 4.16E-01"},
      {"measurement": "Proline - […] HT-HsProRS - 1000nM MAT379", "setting": "[2]; Log[Substrate] (M) -5.816", "result": "4.12E-01 and 3.85E-01 and 3.49E-01 and 3.26E-01"},
      {"measurement": "Proline - […] HT-HsProRS - 1000nM MAT379", "setting": "[2]; Log[Substrate] (M) -6.118", "result": "4.73E-01 and 4.43E-01 and 3.95E-01 and 3.89E-01"},
      {"measurement": "Km", "setting": "[3]", "result": 180, "unit": "µM"},
      {"measurement": "Kd", "setting": "[4]", "result": 457, "unit": "µM"},
      {"measurement": "fold lower affinity for PfcProRS than MAT379", "setting": "[5]", "result": "~ 4,500 fold"}
    ]}
  ]
}
